# Assay results reported in patent publication US8729082B2, “Substituted imidazoquinoxalines” (Bayer Intellectual Property GmbH, priority 2009, dated 2014).
# pIC50: −log10 of the molar value.
# Target: T1, human kinase Mps-1 (Homo sapiens, UniProt P33981)
# T1 construct: N-terminally GST-tagged human full length recombinant Mps-1 kinase; purchased Invitrogen, Karslruhe, Germany PV4071
# T1 sequence (P33981 1-857): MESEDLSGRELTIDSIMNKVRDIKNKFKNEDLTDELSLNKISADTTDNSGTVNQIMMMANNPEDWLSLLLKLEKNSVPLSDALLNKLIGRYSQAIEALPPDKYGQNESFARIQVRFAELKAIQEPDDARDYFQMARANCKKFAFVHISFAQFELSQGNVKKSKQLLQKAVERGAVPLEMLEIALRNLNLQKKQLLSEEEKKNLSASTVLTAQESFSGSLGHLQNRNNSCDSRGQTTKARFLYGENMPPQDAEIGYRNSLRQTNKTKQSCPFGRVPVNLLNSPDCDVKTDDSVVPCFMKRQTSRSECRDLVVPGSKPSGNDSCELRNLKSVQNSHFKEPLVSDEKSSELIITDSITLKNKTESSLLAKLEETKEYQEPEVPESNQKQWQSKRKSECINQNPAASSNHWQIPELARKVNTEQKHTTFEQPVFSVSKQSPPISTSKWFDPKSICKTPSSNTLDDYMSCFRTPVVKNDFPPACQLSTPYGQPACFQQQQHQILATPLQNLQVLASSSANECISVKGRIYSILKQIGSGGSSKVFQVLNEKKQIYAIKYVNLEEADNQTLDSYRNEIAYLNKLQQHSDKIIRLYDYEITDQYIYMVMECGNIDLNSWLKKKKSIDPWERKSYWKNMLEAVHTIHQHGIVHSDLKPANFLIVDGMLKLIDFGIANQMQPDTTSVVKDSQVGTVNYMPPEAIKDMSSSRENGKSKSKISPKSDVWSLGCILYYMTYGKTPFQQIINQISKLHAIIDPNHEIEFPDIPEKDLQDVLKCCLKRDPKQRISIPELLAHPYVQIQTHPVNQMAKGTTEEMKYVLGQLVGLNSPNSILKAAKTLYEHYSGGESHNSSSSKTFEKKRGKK
# Assay: Mps-1 kinase assay (HTRF)
# Assay type: biochemical
# Conditions: lowATP; mean; read-out: Mps1 lowATP mean IC50
# Procedure: The human kinase Mps-1 phosphorylates a biotinylated substrate peptide. Detection of the phosphorylated product is achieved by homogenous time-resolved fluorescence resonance energy transfer (HTRF) from Europium-labelled anti-phospho-Serine/Threonine antibody as donor to streptavidin labelled with cross-linked allophycocyanin (SA-XLent) as acceptor. Compounds are tested for their inhibition of the kinase activity.
# N-terminally GST-tagged human full length recombinant Mps-1 kinase (purchased from Invitrogen, Karslruhe, Germany, cat. no PV4071) was used. As substrate for the kinase reaction a biotinylated peptide of the amino-acid sequence PWDPDDADITEILG (C-terminus in amide form, purchased from Biosynthan GmbH, Berlin) was used.
# For the assay 50 nl of a 100-fold concentrated solution of the test compound in DMSO was pipetted into a black low volume 384 well microtiter plate (Greiner Bio-One, Frickenhausen, Germany), 2 μl of a solution of Mps-1 in assay buffer [0.1 mM sodium-ortho-vanadate, 10 mM MgCl2, 2 mM DTT, 25 mM Hepes pH 7.7, 0.05% BSA, 0.001% Pluronic F-127] were added and the mixture was incubated for 15 min at 22° C. to allow pre-binding of the test compounds to Mps-1 before the start of the kinase reaction. Then the kinase reaction was started by the addition of 3 μl of a solution of 16.7 μM ATP and 1.67 μM peptide in assay buffer and the resulting mixture was incubated for a reaction time of 60 min at 22° C. The concentration of Mps-1 in the assay was adjusted to the activity of the enzyme lot and was chosen appropriate to have the assay in the linear range, typical enzyme concentrations were in the range of about 1 nM (final conc. in the 5 μl assay volume). The reaction was stopped by the addition of 3 μl of a solution of HTRF detection reagents (100 mM Hepes pH 7.4, 0.1% BSA, 40 mM EDTA, 140 nM Streptavidin-XLent [#61GSTXLB, Fa. Cis Biointernational, Marcoule, France], 1.5 nM anti-phospho(Ser/Thr)-Europium-antibody [#AD0180, PerkinElmer LAS, Rodgau-Jügesheim, Germany].
# The resulting mixture was incubated 1 h at 22° C. to allow the binding of the phosphorylated peptide to the anti-phospho(Ser/Thr)-Europium-antibody. Subsequently the amount of phosphorylated substrate was evaluated by measurement of the resonance energy transfer from the Europium-labelled anti-phospho(Ser/Thr) antibody to the Streptavidin-XLent. Therefore, the fluorescence emissions at 620 nm and 665 nm after excitation at 350 nm was measured in a HTRF reader, e.g. a Rubystar (BMG Labtechnologies, Offenburg, Germany) or a Viewlux (PerkinElmer LAS, Rodgau-Jügesheim, Germany). The ratio of the emissions at 665 nm and at […] was taken as the measure for the amount of phosphorylated substrate. The data were normalised (enzyme reaction without inhibitor=0% inhibition, all other assay components but no enzyme=100% inhibition).
row,SMILES,pIC50
1,"COc1ccc(CCNc2nc3ccccc3n3c(-c4ccc(C(=O)NC5CC5)cc4)cnc23)cc1 [Example 2-17, N-cyclopropyl-4-(4-{[2-(4-methoxyphenyl)ethyl]amino}imidazo[1,2-a]quinoxalin-1-yl)benzamide]",6.25
2,"O=C(NC1CC1)c1ccc(-c2cnc3c(NCCCO)nc4ccc(F)cc4n23)cc1Cl [Example 2-80, 2-chloro-N-cyclopropyl-4-{8-fluoro-4-[(3-hydroxypropyl)amino]imidazo[1,2-a]quinoxalin-1-yl}benzamide]",5.52
3,"CNC(=O)Nc1ccc(-c2cnc3c(NCCNC(C)=O)nc4ccc(F)cc4n23)cc1 [Example 2-66, N-{2-[(8-fluoro-1-{4-[(methylcarbamoyl)amino]phenyl}imidazo[1,2-a]quinoxalin-4-yl)amino]ethyl}acetamide]",4.93
4,"CNC(=O)Nc1ccc(-c2cnc3c(NCc4ccccc4)nc4cc(C)c(C)cc4n23)cc1 [Example 2-166, 1-{4-[4-(benzylamino)-7,8-dimethylimidazo[1,2-a]quinoxalin-1-yl]phenyl}-3-methylurea]",6.22
5,"O=C(NC1CC1)c1ccc(-c2cnc3c(NCCCCO)nc4ccc(F)cc4n23)cc1Cl [Example 2-79, 2-chloro-N-cyclopropyl-4-{8-fluoro-4-[(4-hydroxybutyl)amino[imidazo]1,2-a]quinoxalin-1-yl}benzamide]",5.87
6,"CSc1ccc(-c2cnc3c(NCC(C)C)nc4ccccc4n23)cc1 [Example 1-10, N-(2-methylpropyl)-1-[4-(methylsulfanyl)phenyl]imidazo[1,2-a]quinoxalin-4-amine]",5.48
7,"CNC(=O)Nc1ccc(-c2cnc3c(NCC(C)C)nc4cc(C)c(C)cc4n23)cc1 [Example 2-173, 1-(4-{7,8-dimethyl-4-[(2-methylpropyl)amino]imidazo[1,2-a]quinoxalin-1-yl}phenyl)-3-methylurea]",6.68
8,"COCCNc1nc2ccc(F)cc2n2c(-c3ccc(C(=O)NC4CC4)c(Cl)c3)cnc12 [Example 2-78, 2-chloro-N-cyclopropyl-4-{8-fluoro-4-[(2-methoxyethyl)amino]imidazo[1,2-a]quinoxalin-1-yl}benzamide]",5.17
9,"Cn1ccc(CNc2nc3cc(F)c(F)cc3n3c(-c4ccc(C(=O)NC5CC5)cc4)cnc23)n1 [Example 2-109, N-cyclopropyl-4-(7,8-difluoro-4-{[(1-methyl-1H-pyrazol-3-yl)methyl]amino}imidazo[1,2-a]quinoxalin-1-yl)benzamide]",6.59
10,"N#Cc1ccc2c(c1)nc(NCc1ccccc1)c1ncc(-c3ccc(C(=O)NC4CC4)c(Cl)c3)n12 [Example 2-240, 4-[4-(benzylamino)-7-cyanoimidazo[1,2-a]quinoxalin-1-yl]-2-chloro-N-cyclopropylbenzamide]",6.05
11,"O=C(NC1CC1)c1ccc(-c2cnc3c(NCCCN4CCCC4=O)nc4cc(F)c(F)cc4n23)cc1Cl [Example 2-125, 2-chloro-N-cyclopropyl-4-(7,8-difluoro-4-{[3-(2-oxopyrrolidin-1-yl)propyl]amino}imidazo[1,2-a]quinoxalin-1-yl)benzamide]",5.02
12,"COCCCNc1nc2ccc(F)cc2n2c(-c3ccc(C(=O)NC4CC4)cc3)cnc12 [Example 2-57, N-cyclopropyl-4-{8-fluoro-4-[(3-methoxypropyl)amino]imidazo[1,2-a]quinoxalin-1-yl}benzamide]",6.75
13,"O=C(NC1CC1)c1ccc(-c2cnc3c(NCCc4cccnc4)nc4ccccc4n23)cc1 [Example 2-36, N-cyclopropyl-4-(4-{[2-(pyridin-3-yl)ethyl]amino}imidazo[1,2-a]quinoxalin-1-yl)benzamide]",6.89
14,"O=C(NC1CC1)c1ccc(-c2cnc3c(NCc4ccncc4)nc4ccc(F)cc4n23)cc1Cl [Example 2-82, 2-chloro-N-cyclopropyl-4-{8-fluoro-4-[(pyridin-4-ylmethyl)amino]imidazo[1,2-a]quinoxalin-1-yl}benzamide]",5.96

# More lines, in order of rising pIC50, values ahead:
row,pIC50,SMILES
1,4.87,"COc1ccc(-c2cnc3c(NCC(C)C)nc4ccccc4n23)cc1OC [Example 1-25, 1-(3,4-dimethoxyphenyl)-N-(2-methylpropyl)imidazo[1,2-a]quinoxalin-4-amine]"
2,5.23,"Cc1ccc(-c2cnc3c(NCC(C)C)nc4ccccc4n23)c(F)c1 [Example 1-42, 1-(2-fluoro-4-methylphenyl)-N-(2-methylpropyl)imidazo[1,2-a]quinoxalin-4-amine]"
3,5.44,"CC(C)CNc1nc2ccccc2n2c(-c3ccc(C(=O)N4CCCC4)cc3)cnc12 [Example 1-16, (4-{4-[(2-methylpropyl)amino]imidazo[1,2-a]quinoxalin-1-yl}phenyl)(pyrrolidin-1-yl)methanone]"
4,5.54,"CC(C)CNc1nc2ccccc2n2c(-c3ccc4c(c3)OCCO4)cnc12 [Example 1-4, 1-(2,3-dihydro-1,4-benzodioxin-6-yl)-N-(2-methylpropyl)imidazo[1,2-a]quinoxalin-4-amine]"
5,5.76,"COc1ccc(-c2cnc3c(NCC(C)C)nc4ccccc4n23)cc1F [Example 1-33, 1-(3-fluoro-4-methoxyphenyl)-N-(2-methylpropyl)imidazo[1,2-a]quinoxalin-4-amine]"
6,5.89,"N#Cc1ccc2c(c1)nc(NCc1ccncc1)c1ncc(-c3ccc(C(=O)NC4CC4)c(Cl)c3)n12 [Example 2-246, 2-chloro-4-{7-cyano-4-[(pyridin-4-ylmethyl)amino]imidazo[1,2-a]quinoxalin-1-yl}-N-cyclopropylbenzamide]"
7,6.09,"CCCNc1nc2cc(C#N)ccc2n2c(-c3ccc(C(=O)NC4CC4)c(Cl)c3)cnc12 [Example 2-234, 2-chloro-4-[7-cyano-4-(propylamino)imidazo[1,2-a]quinoxalin-1-yl]-N-cyclopropylbenzamide]"
8,6.55,"O=C(NC1CC1)c1ccc(-c2cnc3c(NCCCc4ccccc4)nc4ccccc4n23)cc1 [Example 2-27, N-cyclopropyl-4-{4-[(3-phenylpropyl)amino]imidazo[1,2-a]quinoxalin-1-yl}benzamide]"
9,6.80,"CC(C)CNc1nc2ccccc2n2c(-c3ccc(C(=O)NC4(C)CC4)cc3)cnc12 [Example 3-32, N-(1-methylcyclopropyl)-4-{4-[(2-methylpropyl)amino]imidazo[1,2-a]quinoxalin-1-yl}benzamide]"
10,7.54,"N#Cc1ccc2c(c1)nc(NCC(F)(F)F)c1ncc(-c3ccc(C(=O)NC4CC4)cc3)n12 [Example 2-209, 4-{7-cyano-4-[(2,2,2-trifluoroethyl)amino]imidazo[1,2-a]quinoxalin-1-yl}-N-cyclopropylbenzamide]"
11,7.55,"CC(C)CNc1nc2ccc(F)cc2n2c(-c3ccc(C(=O)NC4CC4)cc3)cnc12 [Example 2-55, N-cyclopropyl-4-{8-fluoro-4-[(2-methylpropyl)amino]imidazo[1,2-a]quinoxalin-1-yl}benzamide]"
